Source: patent US20070219238A1 (priority 2004, published 2007)
Read-outs that look alike come from different tables or passages of the source.

Tested on: Phytophthora infestans
Type: in vivo
Conditions: individual active compound, potted tomato plants, protective, evaluated after 6 days

SMILES	Efficacy in % of the untreated control (50 ppm in the spray liquor) [%]	Efficacy in % of the untreated control (100 ppm in the spray liquor) [%]
CC1CCN(c2c(-c3c(F)cc(F)cc3F)c(Cl)nc3ncnn23)CC1 [I, 5-chloro-7-(4-methylpiperidin-1-yl)-6-(2,4,6-trifluorophenyl)[1,2,4]triazolo [1,5-a]pyrimidine]	0	–
[Cl-].[Cu+2].[Cu+2].[OH-].[OH-].[OH-] [II-1, copper oxychloride]	0	22
O=C([O-])[O-].[Cu+2].[Cu+2].[OH-].[OH-] [II-2, (basic) copper carbonate]	0	11
[Cu+2].[OH-].[OH-] [II-3, copper hydroxide]	11	22
CC1CCN(c2c(-c3c(F)cccc3Cl)c(Cl)nc3ncnn23)CC1 [comparative compound A]	0	–
C[C@H](Nc1c(-c2c(F)cc(F)cc2F)c(Cl)nc2ncnn12)C(F)(F)F [comparative compound B]	0	–
